Experiments:
[1] = system: MEC-1 (human B-cell chronic lymphocytic leukemia); assay: Cell death by PI staining and flow cytometry (FACS), MEC-1; assay type: cell-based; settings: MEC-1 cells, 1.5 h
Protocol: MEC-1 cells were incubated in a serum-free medium with various concentrations of VDAC1-based peptides for 1.5 h at room temperature (RT), collected by centrifugation, washed with phosphate-buffered saline (PBS), and analyzed for cell death. Adherent cancer cells were seeded in culture plates and allowed to adhere overnight in a sterile cell culture incubation chamber maintained at 37 °C and 5% CO2. The next day, media was removed from the plates, and cells were treated with various concentrations of VDAC1-based peptides for the indicated time in serum-free Dulbecco’s Modified Eagle Medium (DMEM) with and without DMSO (final 0.15%) as a control for 6 h at 37 °C and 5% CO2. Cells were trypsinized, centrifuged (1500× g, 5 min), and washed with PBS.
Cell death was analyzed by the propidium iodide (PI) staining, followed by flow cytometry with the iCyt sy3200 Benchtop Cell Sorter/Analyzer and analysis with EC800 v 1.3.7 software (Sony Biotechnology Inc., San Jose, CA, USA). Apoptosis was analyzed by PI and annexin V-FITC staining, which was carried out according to the manufacturer’s instructions with minor modifications. […] Next, cells were washed and PI (6.25 μg/mL), was added immediately before flow cytometry At least 10,000 events were collected, recorded on a dot plot, and analyzed by flow cytometry. […]

VDAC1 = assay: Microscale thermophoresis (MST) binding to fluorescently labeled purified VDAC1; settings: fluorescently labeled purified VDAC1 (138 nM); actin 10–500 nM, tubulin 20–2000 nM; 10 mM Tricine pH 7.4, 100 mM NaCl; read-out: Kd of interaction with VDAC1 (MST)
Protocol: Purified VDAC1 was fluorescently labeled using the NanoTemper Protein-Labeling Blue Kit. Fluorescently labeled VDAC1 was incubated with different concentrations of actin, tubulin, or peptides in 10 mM Tricine buffer (pH 7.4) containing 100 mM NaCl. After a 20-min incubation, 8–10 μL aliquots were loaded into microscale thermophoresis (MST) grade glass capillaries (NanoTemper Technologies, Munich, Germany), and thermophoresis was measured with the NanoTemper Monolith-NT115 system (20/40% light-emitting diode, 40% infrared laser power).
Figure 5 D-Δ(1-18)N-Ter-Antp altered actin filament organization (A,B) U-87MG cells were cultured and incubated for 24 h with D-Δ(1-18)N-Ter-Antp (10 µM). Cells were stained for actin using Phalloidin-488 and visualized by confocal microscopy (A) and quantified for Phalloidin-488 staining intensity (B). The results were from triplicates of different biological repeats and are presented as the means ± SEM. * p ≤ 0.05; ** p ≤ 0.01. (C) Maximum intensity projection of super-resolution (SIM) microscopy image. […] (D) Actin interaction with VDAC1 analyzed using the MST method. […] (E) In vitro G-actin polymerization was monitored, as described in the Method section. […]
Figure 6 D-Δ(1-18)N-Ter-Antp altered tubulin filament organization. […] Quantification of tubulin staining intensity (B). […] (D) Tubulin (20–2000 nM) interaction with VDAC1 analyzed using the MST method.

Kd (VDAC1) [nM] | Substance | Maximal cell death (at the concentration for maximal cell death) [1] [%]
– | 11-GKSARDVFTKGYGFGL-26- RRMKWKK [Δ(1-10)N-Ter-min-Antp, VDAC1 N-terminal residues 11-26 fused to minimal Antp] | 20
30 | actin | –

Reference: paper PMC9599717, “The Multicellular Effects of VDAC1 N-Terminal-Derived Peptide” (Biomolecules, 2022)
